Data on 26 compounds can be found in patent US12479838B2, “D3 receptor agonist compounds; methods of preparation; intermediates thereof; and methods of use thereof” (THE UNITED STATES OF AMERICA, AS REPRESENTED BY THE …, priority 2019, dated 2025).

Like-named read-outs stand apart in the source and are kept apart here.

The target of one experiment is human D2LR (Homo sapiens (Human), UniProt P14416). As to the kind of experiment: Radioligand competition binding vs. [3H]-(R)-(+)-7-OH-DPAT, hD2R. For orientation: Displacement assays read how much labelled ligand stays bound in the presence of the test substance.
Chain of human D2LR (P14416 whole entry): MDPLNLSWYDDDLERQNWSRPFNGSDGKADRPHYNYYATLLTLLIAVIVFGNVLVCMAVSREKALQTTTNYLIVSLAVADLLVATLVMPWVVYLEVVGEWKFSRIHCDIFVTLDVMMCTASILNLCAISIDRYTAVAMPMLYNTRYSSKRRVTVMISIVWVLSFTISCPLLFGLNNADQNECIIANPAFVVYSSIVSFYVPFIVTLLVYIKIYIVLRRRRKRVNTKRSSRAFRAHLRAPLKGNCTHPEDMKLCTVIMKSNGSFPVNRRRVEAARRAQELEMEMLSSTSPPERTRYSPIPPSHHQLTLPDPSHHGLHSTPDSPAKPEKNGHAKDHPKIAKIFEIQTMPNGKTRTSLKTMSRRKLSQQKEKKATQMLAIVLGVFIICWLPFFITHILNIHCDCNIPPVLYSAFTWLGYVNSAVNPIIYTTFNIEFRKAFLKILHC
In another experiment the target is human D3R (Homo sapiens (Human), UniProt P35462). As to the kind of experiment: Radioligand competition binding vs. [3H]-(R)-(+)-7-OH-DPAT, hD3R. The settings on record: for D2R/D3R: ratio of Ki, D3R selectivity over D2R.
Chain of human D3R (P35462 whole entry): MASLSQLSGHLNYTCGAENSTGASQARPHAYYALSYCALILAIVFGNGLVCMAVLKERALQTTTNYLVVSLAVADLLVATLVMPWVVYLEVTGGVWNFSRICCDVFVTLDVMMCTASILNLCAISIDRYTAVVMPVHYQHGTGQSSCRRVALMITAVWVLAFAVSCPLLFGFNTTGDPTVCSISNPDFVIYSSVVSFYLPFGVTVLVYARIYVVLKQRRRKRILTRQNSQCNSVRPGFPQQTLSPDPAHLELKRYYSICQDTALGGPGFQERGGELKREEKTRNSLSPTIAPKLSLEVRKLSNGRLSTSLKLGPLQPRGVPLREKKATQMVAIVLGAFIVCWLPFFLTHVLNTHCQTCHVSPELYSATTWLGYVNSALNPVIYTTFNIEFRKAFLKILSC
Setting [1] is: vs. [3H]-(R)-(+)-7-OH-DPAT, HEK293 cells stably expressing hD2R, read-out: D2R Ki ± SEM.
[2] abbreviates: vs. [3H]-(R)-(+)-7-OH-DPAT, HEK293 cells stably expressing hD3R, read-out: D3R Ki ± SEM.

The Ki is a dissociation constant, usually derived from enzyme kinetics or from competition with a known ligand.

As to `CCCN1CCO[C@@H]2c3cc(OCCCCOc4ccc5c(c4)NC(=O)CC5)ccc3OC[C@H]21` [AB04-38, 7-(4-(((4aR,10bR)-4-propyl-3,4,4a,10b-tetrahydro-2H,5H-chromeno[4,3-b][1,4]oxazin-9-yl)oxy)butoxy)-3,4-dihydroquinolin-2(1H)-one], the Ki at human D2LR (setting [1]) stood at 10.1 µM; at human D3R (setting [2]), 1.59 µM. The D2R/D3R at human D3R (vs. [3H]-(R)-(+)-7-OH-DPAT) was 6.35.
Consider `O=C1CCc2ccc(OCCCCN3CCO[C@@H]4c5cc(O)ccc5OC[C@H]43)cc2N1` [SLC02-11, 7-(4-((4aR,10bR)-9-hydroxy-2,3,4a,10b-tetrahydro-4H,5H-chromeno[4,3-b][1,4]oxazin-4-yl)butoxy)-3,4-dihydroquinolin-2(1H)-one], for which the Ki came to 6.26 µM at human D2LR (setting [1]) and 11.3 µM at human D3R (setting [2]). Further, the D2R/D3R at human D3R (vs. [3H]-(R)-(+)-7-OH-DPAT) is listed as 0.554.
Take `CCCN1CCO[C@@H]2c3cc(O)ccc3OC[C@@H]21` (racemic) [(±)-cis-2, reference compound]: the Ki on human D2LR and at human D3R was more than 10 µM throughout.
Consider `C[C@H]1CO[C@@H](c2ccc(N)nc2)CN1C/C=C/COc1ccc2c(c1)NC(=O)CC2` [FOB01-44, 7-(((E)-4-((2S,5S)-2-(6-aminopyridin-3-yl)-5-methylmorpholino)but-2-en-1-yl)oxy)-3,4-dihydroquinolin-2(1H)-one], for which the Ki on human D2LR (setting [1]) was 0.341 ± 0.0276 µM; at human D3R (setting [2]), 1.15 µM. Further, the D2R/D3R at human D3R (vs. [3H]-(R)-(+)-7-OH-DPAT) came out at 0.297.
`CCCN1CCO[C@@H]2c3cc(OCCCCNC(=O)c4cc5cccnc5[nH]4)ccc3OC[C@H]21` [AB04-42, N-(4-(((4aR,10bR)-4-propyl-3,4,4a,10b-tetrahydro-2H,5H-chromeno[4,3-b][1,4]oxazin-9-yl)oxy)butyl)-1H-pyrrolo[2,3-b]pyridine-2-carboxamide]: the figures for the Ki at human D2LR (setting [1]) and at human D3R (setting [2]) were 27 µM and 8.66 µM, respectively. On human D3R (vs. [3H]-(R)-(+)-7-OH-DPAT), the D2R/D3R stood at 3.12.
With `C[C@H]1CO[C@@H](c2ccc(N)nc2)CN1CCCCOc1ccc2c(c1)NC(=O)CC2` [AB04-96, 7-(4-((2S,5S)-2-(6-aminopyridin-3-yl)-5-methylmorpholino)butoxy)-3,4-dihydroquinolin-2(1H)-one], the Ki on human D2LR (setting [1]) turned out to be 0.0346 ± 0.00486 µM; on human D3R (setting [2]), 0.0312 ± 0.00872 µM. Besides, the D2R/D3R at human D3R (vs. [3H]-(R)-(+)-7-OH-DPAT) amounted to 1.11. Further, the “D3R affinity, fold better than its (2R,5S) diastereoisomer” value at human D3R (vs. [3H]-(R)-(+)-7-OH-DPAT) was found to be 775 fold.
Turning to `C[C@H]1CO[C@H](c2ccc(N)nc2)CN1` [AB04-85A, 5-((2R,5S)-5-methylmorpholin-2-yl)pyridin-2-amine], the Ki is 7.1 µM at human D2LR (setting [1]) and 1.52 µM on human D3R (setting [2]). For the same compound, the D2R/D3R at human D3R (vs. [3H]-(R)-(+)-7-OH-DPAT) turned out to be 4.67.
`CCCN1CCO[C@@H]2c3cc(OCCCCNC(=O)c4nc5ccccc5s4)ccc3OC[C@H]21` [SLC01-35, N-(4-(((4aR,10bR)-4-propyl-3,4,4a,10b-tetrahydro-2H,5H-chromeno[4,3-b][1,4]oxazin-9-yl)oxy)butyl)benzo[d]thiazole-2-carboxamide]: the Ki on human D2LR (setting [1]) came out at 5.51 µM; on human D3R (setting [2]), 1.33 µM. Besides, the D2R/D3R on human D3R (vs. [3H]-(R)-(+)-7-OH-DPAT) came to 4.14.
Taken in the same sequence, the figures for `C[C@H]1CO[C@H](c2ccc(N)nc2)CN1C/C=C/COc1ccc2c(c1)NC(=O)CC2` [FOB01-42, 7-(((E)-4-((2R,5S)-2-(6-aminopyridin-3-yl)-5-methylmorpholino)but-2-en-1-yl)oxy)-3,4-dihydroquinolin-2(1H)-one] were 21.1 µM, 73 µM and 0.289.
As to `C[C@H]1CO[C@@H](c2ccc(N)nc2)CN1CC1CC1CNC(=O)c1cc2ccccc2[nH]1` (stereo partly drawn) [cis-FOB01-59B, cis-N-((2-(((2S,5S)-2-(6-aminopyridin-3-yl)-5-methylmorpholino)methyl)cyclopropyl)methyl)-1H-indole-2-carboxamide], the Ki at human D2LR (setting [1]) was 0.12 ± 0.0166 µM; at human D3R (setting [2]), 0.276 ± 0.03 µM. Also, the D2R/D3R on human D3R (vs. [3H]-(R)-(+)-7-OH-DPAT) was determined as 0.435.
Taken in the same sequence, the figures for `C[C@H]1CO[C@H](c2ccc(N)nc2)CN1CC1CC1CNC(=O)c1cc2ccccc2[nH]1` (stereo partly drawn) [cis-FOB01-60B, cis-N-((2-(((2R,5S)-2-(6-aminopyridin-3-yl)-5-methylmorpholino)methyl)cyclopropyl)methyl)-1H-indole-2-carboxamide] were 7.73 µM, 32.9 µM and 0.235.
For `C[C@H]1CO[C@H](c2ccc(N)nc2)CN1CC1CC1CNC(=O)c1cc2ccccc2[nH]1` (mixture of isomers) [rac-trans-AB05-26, trans-N-((2-(((2R,5S)-2-(6-aminopyridin-3-yl)-5-methylmorpholino)methyl)cyclopropyl)methyl)-1H-indole-2-carboxamide], in that order: 14.1 µM, 66.2 µM and 0.213.
Taken in the same sequence, the figures for `CCCN1CCO[C@@H]2c3cc(OCCCCNC(=O)c4ccc5c(c4)Cc4ccccc4-5)ccc3OC[C@H]21` [SLC01-24, N-(4-(((4aR,10bR)-4-propyl-3,4,4a,10b-tetrahydro-2H,5H-chromeno[4,3-b][1,4]oxazin-9-yl)oxy)butyl)-9H-fluorene-2-carboxamide] were 6.71 µM, 0.806 ± 0.185 µM and 8.33.
Regarding `C[C@H]1CO[C@@H](c2ccc(N)nc2)CN1CC1CC1CNC(=O)c1cc2ccccc2[nH]1` (stereo partly drawn) [trans-AB05-27B, trans-N-((2-(((2S,5S)-2-(6-aminopyridin-3-yl)-5-methylmorpholino)methyl)cyclopropyl)methyl)-1H-indole-2-carboxamide], the inhibition constant Ki came to 0.707 ± 0.0198 µM at human D2LR (setting [1]); 0.404 µM on human D3R (vs. [3H]-(R)-(+)-7-OH-DPAT, HEK293 cells stably expressing hD3R, listed as AB05-27B, read-out: D3R Ki ± SEM); 0.404 ± 0.034 µM at human D3R (setting [2]). The D2R/D3R at human D3R (vs. [3H]-(R)-(+)-7-OH-DPAT) stood at 1.75.
Take `CCCN1CCO[C@@H]2c3cc(OCCCCNC(=O)c4ccc5scnc5c4)ccc3OC[C@H]21` [AB04-41, N-(4-(((4aR,10bR)-4-propyl-3,4,4a,10b-tetrahydro-2H,5H-chromeno[4,3-b][1,4]oxazin-9-yl)oxy)butyl)benzo[d]thiazole-5-carboxamide]: the values for the Ki at human D2LR (setting [1]) and on human D3R (setting [2]) were 9.16 µM and 2.13 µM, respectively. The D2R/D3R on human D3R (vs. [3H]-(R)-(+)-7-OH-DPAT) was found to be 4.30.
Taken in the same sequence, the figures for `C[C@H]1CO[C@@H](c2ccc(N)nc2)CN1` [AB04-85B, 5-((2S,5S)-5-methylmorpholin-2-yl)pyridin-2-amine] were 2.34 µM, 0.424 ± 0.0324 µM and 5.52.
In the case of `CCCN1CCO[C@@H]2c3cc(OCCCCNC(=O)c4cc5ccccc5[nH]4)ccc3OC[C@H]21` [SLC01-25, N-(4-(((4aR,10bR)-4-propyl-3,4,4a,10b-tetrahydro-2H,5H-chromeno[4,3-b][1,4]oxazin-9-yl)oxy)butyl)-1H-indole-2-carboxamide], the Ki at human D2LR (setting [1]) stood at 3.86 µM; on human D3R (setting [2]) it was 0.613 ± 0.0506 µM. In addition, the D2R/D3R at human D3R (vs. [3H]-(R)-(+)-7-OH-DPAT) was determined as 6.30.
For `CCCN1CCO[C@@H]2c3cc(OCCCCN4C(=O)c5ccccc5C4=O)ccc3OC[C@H]21` [AB02-119], the Ki was 2.51 µM on human D2LR (setting [1]) and 1.19 µM on human D3R (setting [2]). Besides, the D2R/D3R on human D3R (vs. [3H]-(R)-(+)-7-OH-DPAT) is 2.11.
Consider `O=C(NCCCCNC1COc2ccc(O)cc2C1=O)c1cc2ccccc2[nH]1` (single isomer, unassigned) [SLC02-16B, N-(4-((6-hydroxy-4-oxochroman-3-yl)amino)butyl)-1H-indole-2-carboxamide], for which the Ki at human D2LR (setting [1]) stood at 1.43 µM; at human D3R (setting [2]), 1.77 µM. Besides, the D2R/D3R at human D3R (vs. [3H]-(R)-(+)-7-OH-DPAT) is 0.808.
`C[C@H]1CO[C@H](c2ccc(N)nc2)CN1CCCCOc1ccc2c(c1)NC(=O)CC2` [AB04-95, 7-(4-((2R,5S)-2-(6-aminopyridin-3-yl)-5-methylmorpholino)butoxy)-3,4-dihydroquinolin-2(1H)-one]: the Ki came to 2.66 µM on human D2LR (setting [1]) and 24.2 µM at human D3R (setting [2]). Besides, on human D3R (vs. [3H]-(R)-(+)-7-OH-DPAT), the D2R/D3R turned out to be 0.110.
Consider `C[C@H]1CO[C@H](c2ccc(N)nc2)CN1CC1CC1CNC(=O)c1cc2ccccc2[nH]1` (stereo partly drawn) [cis-FOB01-60A, cis-N-((2-(((2R,5S)-2-(6-aminopyridin-3-yl)-5-methylmorpholino)methyl)cyclopropyl)methyl)-1H-indole-2-carboxamide], for which the Ki on human D2LR (setting [1]) came out at 11.3 µM; on human D3R (setting [2]) it was 26.2 µM. Further, on human D3R (vs. [3H]-(R)-(+)-7-OH-DPAT), the D2R/D3R is 0.431.
Consider `C[C@H]1CO[C@@H](c2ccc(N)nc2)CN1CC1CC1CNC(=O)c1cc2ccccc2[nH]1` (stereo partly drawn) [trans-AB05-27A, trans-N-((2-(((2S,5S)-2-(6-aminopyridin-3-yl)-5-methylmorpholino)methyl)cyclopropyl)methyl)-1H-indole-2-carboxamide], for which the Ki at human D2LR (vs. [3H]-(R)-(+)-7-OH-DPAT, HEK293 cells stably expressing hD2R, listed as AB05-27A, read-out: D2R Ki ± SEM) was found to be 0.216 µM; on human D2LR (setting [1]) it was 0.216 ± 0.0326 µM; at human D3R (setting [2]), 1.19 µM. Further, the D2R/D3R at human D3R (vs. [3H]-(R)-(+)-7-OH-DPAT) was determined as 0.182.
For `Oc1ccc2c(c1)[C@H]1OCCN[C@@H]1CO2` [AB04-75, (4aR,10bR)-3,4,4a,10b-tetrahydro-2H,5H-chromeno[4,3-b][1,4]oxazin-9-ol, reference compound], the figures for the Ki on human D2LR (setting [1]) and on human D3R (setting [2]) were 4.25 µM and 0.403 ± 0.00555 µM, respectively. Besides, on human D3R (vs. [3H]-(R)-(+)-7-OH-DPAT), the D2R/D3R is recorded as 10.5.
For `O=C(NCCCCNC1COc2ccc(O)cc2C1=O)c1cc2ccccc2[nH]1` (single isomer, unassigned) [SLC02-16A, N-(4-((6-hydroxy-4-oxochroman-3-yl)amino)butyl)-1H-indole-2-carboxamide], in that order: 0.245 ± 0.032 µM, 0.354 ± 0.0451 µM and 0.710.
For the compound `CCCN(CCC)c1ccc(C2CN(CCC)C(C)CO2)cn1` (stereo not shown) [AB03-14], the values for the Ki on human D2LR (setting [1]) and at human D3R (setting [2]) were more than 5 µM and more than 10 µM, respectively.
In the case of `C[C@H]1CO[C@@H](c2ccc(N)nc2)CN1CC1CC1CNC(=O)c1cc2ccccc2[nH]1` (stereo partly drawn) [cis-FOB01-59A, cis-N-((2-(((2S,5S)-2-(6-aminopyridin-3-yl)-5-methylmorpholino)methyl)cyclopropyl)methyl)-1H-indole-2-carboxamide], the Ki on human D2LR (setting [1]) is 1.07 µM; on human D3R (setting [2]), 2.15 µM. The D2R/D3R on human D3R (vs. [3H]-(R)-(+)-7-OH-DPAT) is listed as 0.498.
